# From patent US5684205A, “Use of substituted cyclopentane- di- and -triones” (Bayer Aktiengesellschaft, priority 1994, dated 1997)
# Tested on: airway epithelial cell line 4MBr-5
# Assay: 36Cl chloride efflux inhibition in airway epithelial cell line 4MBr-5
# Type: cell-based
# Settings: 20 min, 4MBr-5 cells; for inhibition at 10 µg/mL: 10 μg/ml test compound, 20 minutes efflux, expressed as a percentage of the maximal inhibition observed with NPPB
# Experimental: This compound provides a suitable reference standard against which to judge other chloride channel blockers. […] In the test described below maximal inhibition of chloride efflux is observed at 300 μM, with 20% inhibition evident at the standard test concentration of 10 μg/ml.
# The airway epithelial cell line 4MBr-5 was obtained from ATCC and cells were cultured in 35 mm diameter wells on six well plates until cell layers were confluent. Cells were loaded with Na^36 CI solutions at 2.5 μCi/well after washing the cell monolayer free of […] culture medium. Washing and loading were performed in Hepes buffer (pH 7.4) containing 130 mM NaCI, 5.4 mM KCI, 1.8 mM CaCI2, 1.0 mM NaH2 PO4, 0.8 mM MgSO4 and 5.5 mM glucose. After a loading period of 60 minutes the cell layer was rapidly washed with 50 mM Hepes in 241 mM sucrose containing […] MgSO4 and the buffer replaced with 2 ml of ^36 CI^- free buffer containing 10 μg/ml test compound, or vehicle control. (Test compound was also present for the final ten minutes of the loading procedure). After 20 minutes efflux was stopped and the radioactivity remaining in the cells determined by liquid scintillation spectrometry after lysis of the cells. After subtraction of the counts found in cells treated with vehicle the increased counts were compared to the corresponding value observed with NPPB and expressed as a percentage of the maximal inhibition.
SMILES,inhibition at 10 µg/mL,"IC (maximal) (36Cl efflux, read-out: concentration at which maximal inhibition of chloride efflux is observed)"
COc1ccc(C=C2C(=O)C(O)=C(c3ccccc3)C2=O)cc1 [2/24],28.6%,–
O=C1C(=Cc2ccc(Cl)cc2Cl)C(=O)C(c2ccccc2)=C1O [15/36],37.7%,–
O=C1C(=Cc2ccc(C(F)(F)F)cc2)C(=O)C(c2ccccc2)=C1O [16/37],58.2%,–
O=C1C(=Cc2ccc(-c3ccccc3)cc2)C(=O)C(c2ccccc2)=C1O [17/38],83.5%,–
COc1ccc(C2=C(O)C(=O)C(=Cc3ccccc3)C2=O)cc1 [18/1],24%,–
O=C1C(=Cc2ccccc2)C(=O)C(c2ccc(Cl)cc2)=C1O [19/39],31.1%,–
CCN(CC)c1ccc(C=C2C(=O)C(O)=C(c3ccccc3)C2=O)cc1 [20/40],22.7%,–
O=C1C(=Cc2ccc(OCc3ccccc3)cc2)C(=O)C(c2ccccc2)=C1O [21/41],50.6%,–
COc1ccc(C2=C(O)C(=O)C(=Cc3ccc(Cl)c(Cl)c3)C2=O)cc1 [22/42],65%,–
O=C1C(=Cc2ccccc2O)C(=O)C(c2ccccc2)=C1O [23/43],36.4%,–
"O=C(O)c1cc([N+](=O)[O-])ccc1NCCCc1ccccc1 [NPPB, 2-(3-phenylpropyl)amino-5-nitrobenzoic acid, reference compound]",20%,300 µM
